How the values were obtained:
[1] = tested on: healthy human adult skin fibroblasts; experiment: Spheroid culture of healthy human adult skin fibroblasts, microscope observation; type: cell-based; settings: 96-well round-bottom vessel coated with 0.125% solution; uncoated control grew 2D
Procedure: An aqueous solution of the polypeptide represented by formula (1) (0.125%) (cell culture supplement) was added to a commercial polystyrene-made 96-well round-bottom culture vessel (Nuncion Delta 96U Bottom, Thermo Fisher Scientific) and allowed to stand at 4° C. for 24 hours. The cell culture supplement solution was then removed and the coated cell culture supplement was dried in a dryer at 37° C. for 96 hours to complete the cell culture supplement coating process. Healthy human adult skin fibroblasts (Lonza, normal human dermal fibroblast-adult, referred to as “adult skin fibroblasts” below) were maintained and cultured in a serum-free medium (Fujifilm Wako Pure Chemical Corporation; DMEM/F12 medium, human serum albumin recombinant 0.5 mg/mL, human transferrin recombinant 10 μg/mL, basic-FGF 5 ng/ml, and insulin 2.5 μg/mL). Adult skin fibroblasts floating in 100 μL of the medium were seeded in the 96-well round-bottom culture vessel coated with the cell culture supplement at 2×10^4 cells/well and cultured at 37° C. under 5% CO2 conditions.

[2] = tested on: A549 lung cancer cells; experiment: Real-time PCR of cancer stem cell and undifferentiated stem cell marker genes in cancer cell spheroids; type: cell-based, human; settings: control no supplement, 2D adhesion proliferation, day 4 = 1.0
Procedure: (§1) A culture vessel treated with the cell culture supplement was prepared in the same manner as in Example 7, and the same three types of cancer cells as those in Example 7 were cultured. On day 4 and day 15 after the start of culture, spheroids of each of the three types of cancer cells were taken from the culture vessel and collected in an individual 15-mb centrifuge tube, followed by washing with phosphate buffered saline (−). After removal of the medium, cancer cells cultured in the plate free of the cell culture supplement (control) were washed with PBS (−), detached from the plate with 0.05% trypsin-EGTA and dissociated. The cancer cells were then collected in a 15-mL centrifuge tube and washed again with PBS (−). mRNA was extracted from the collected spheroids and control cells, and the expression of cancer stem cell marker genes was analyzed by real-time PCR.
(§2) Specifically, a NucleoZOL reagent (Macherey-Nagel) reagent was added to each type of cells, and RNA was extracted according to the protocol recommended by the reagent manufacturer and used as template RNA for detecting stem cell markers. For real-time PCR analysis, PCR probes from QuantiFast Probe RT-PCR Kits (QIAGEN; No. 204454) and TaqMan Gene Expression Assay Probe (Thermo Fisher Scientific) were used. PCR analysis was performed with a Rotor-Gene Q (QIAGEN) apparatus. For probes for detecting the expression of cancer stem cell marker genes, the following three PCR probes were used: CD24 (mucin-type glycoprotein, ligand for P-selectin, Oncogene), CD44 (cell surface glycoprotein involved cell-cell interaction, adhesion and migration, cancer stem cell marker), CD133 (five transmembrane glycoprotein, stem cell marker and cancer stem cell marker protein). B-actin was used as an endogenous control gene. For probes for detecting the expression of undifferentiated stem cell marker genes, three transcription factors, SOX2 (sex-determining region Y-box 2), OCT4 (octamer binding transcription factor 4), and NANOG (homeodomain transcription factor), which are used in the production of iPS cells, were used; and β-actin was used as the endogenous control gene. In the gene expression analysis, relative quantification was performed according to the ΔΔCt method (Delta Delta Ct method). The results of analysis according to the ΔΔCt method show the amount of a gene expressed by control cells under the conditions of “no cell culture supplement, 2D adhesion proliferation, day 4” as “1.0” in relative terms, and the increase rate in “the expression level in spheroid proliferation on day 15” was determined by comparison (FIGS. 23 to 25).
(§3) Coating of a culture vessel was completed in the same manner as in Examples 7 and 11, and three types of cancer cells, A549 cells, ES2 cells, and 143B cells, were cultured. For probes for detecting the expression of undifferentiated stem cell marker genes, the following three transcription factors were used: SOX2 (sex-determining region Y-box 2), OCT4 (octamer binding transcription factor 4), and NANOG (homeodomain transcription factor); and β-actin was used as an endogenous control gene. In the gene expression analysis, relative quantification was performed according to the ΔΔCt method (Delta Delta Ct method). The results of analysis according to the ΔΔCt method show the amount of a gene expressed by control cells under the conditions of “no cell culture supplement, 2D adhesion proliferation, day 4” as “1.0” in relative terms, and the increase rate in “the expression level in spheroid proliferation on day 15” was determined by comparison (FIGS. 26 to 28).

[3] = tested on: ES2 ovarian cancer cells; experiment: as above; type: cell-based, human; settings: for CD24 gene expression level (increase vs control) / CD44 gene expression level (increase vs control) / NANOG gene expression level (increase vs control) / OCT4 gene expression level (increase vs control) / SOX2 gene expression level (increase vs control): control no supplement, 2D adhesion proliferation, day 4 = 1.0
Procedure: as §1, §2, §3

[4] = tested on: HOS-143B osteosarcoma cells; experiment: as above; type: cell-based, human; settings: control no supplement, 2D adhesion proliferation, day 4 = 1.0
Procedure: as §1, §2, §3

Substance: (Pro-Hyp-Gly)n [cell culture supplement]
- spheroid formation [1]: formed spheroids
- CD24 gene expression level (increase vs control) ([2]; day 4 of spheroid culture): 2.2 fold
- CD44 gene expression level (increase vs control) ([2]; day 4 of spheroid culture): 1.6 fold
- CD133 gene expression level (increase vs control) ([2]; day 4 of spheroid culture): 3.4 fold
- NANOG gene expression level (increase vs control) ([2]; day 4 of spheroid culture): 10.6 fold
- OCT4 gene expression level (increase vs control) ([2]; day 4 of spheroid culture): 1.6 fold
- SOX2 gene expression level (increase vs control) ([2]; day 4 of spheroid culture): 5.0 fold
- CD24 gene expression level (increase vs control) ([2]; day 15 of spheroid culture): 4.2 fold
- CD44 gene expression level (increase vs control) ([2]; day 15 of spheroid culture): 2.9 fold
- CD133 gene expression level (increase vs control) ([2]; day 15 of spheroid culture): 13.5 fold
- NANOG gene expression level (increase vs control) ([2]; day 15 of spheroid culture): 55.7 fold
- OCT4 gene expression level (increase vs control) ([2]; day 15 of spheroid culture): 3.7 fold
- SOX2 gene expression level (increase vs control) ([2]; day 15 of spheroid culture): 6.0 fold
- CD24 gene expression level (increase vs control) ([3]; day 4 of spheroid culture): 11.6 fold
- CD44 gene expression level (increase vs control) ([3]; day 4 of spheroid culture): 1.3 fold
- NANOG gene expression level (increase vs control) ([3]; day 4 of spheroid culture): 3.9 fold
- OCT4 gene expression level (increase vs control) ([3]; day 4 of spheroid culture): 2.6 fold
- SOX2 gene expression level (increase vs control) ([3]; day 4 of spheroid culture): 1.1 fold
- CD133 gene expression level (increase vs day 4 spheroid culture) ([3]; day 15 of spheroid culture, CD133 on day 4 in spheroid culture taken as control value (1.0), not detected in adhesion proliferation cells): 8.5 fold
- CD24 gene expression level (increase vs control) ([3]; day 15 of spheroid culture): 63.2 fold
- CD44 gene expression level (increase vs control) ([3]; day 15 of spheroid culture): 2.9 fold
- NANOG gene expression level (increase vs control) ([3]; day 15 of spheroid culture): 10.9 fold
- OCT4 gene expression level (increase vs control) ([3]; day 15 of spheroid culture): 4.6 fold
- SOX2 gene expression level (increase vs control) ([3]; day 15 of spheroid culture): 3.4 fold
- CD24 gene expression level (increase vs control) ([4]; day 4 of spheroid culture): 1.34 fold
- CD44 gene expression level (increase vs control) ([4]; day 4 of spheroid culture): 2.3 fold
- CD133 gene expression level (relative to control, printed as decreased) ([4]; day 4 of spheroid culture): 0.3 fold
- NANOG gene expression level (increase vs control) ([4]; day 4 of spheroid culture): 1.6 fold
- OCT4 gene expression level (increase vs control) ([4]; day 4 of spheroid culture): 2.5 fold
- SOX2 gene expression level (increase vs control) ([4]; day 4 of spheroid culture): 3.5 fold
- CD24 gene expression level (increase vs control) ([4]; day 15 of spheroid culture): 1.2 fold
- CD44 gene expression level (increase vs control) ([4]; day 15 of spheroid culture): 1.9 fold
- CD133 gene expression level (increase vs control) ([4]; day 15 of spheroid culture): 2.1 fold
- NANOG gene expression level (increase vs control) ([4]; day 15 of spheroid culture): 1.4 fold
- OCT4 gene expression level (increase vs control) ([4]; day 15 of spheroid culture): 2.4 fold
- SOX2 gene expression level (increase vs control) ([4]; day 15 of spheroid culture): 1.6 fold
